Data set [1] in a line: Stability test -1: residual rate of 1% aqueous solutions at pH 3 to 9 on storage. Format: physicochemical. The note with it: for Residual Rate After 2 weeks / Residual Rate After 4 weeks: 1% aqueous solution.
The subject of data set [2] is Normal human dermal fibroblasts (NHDF). Kind of data set: Hyaluronic acid production promoting effect (ELISA of supernatant). The note with it: sample at 10 mM or less in serum-free D-MEM, cultured 48 hours, % of control group (100%), N=3. Format: cell-based. As to the method:
Normal human dermal fibroblasts (NHDF) were prepared in D-MEM containing 5% (v/v) fetal bovine serum to a cell density of 2.5 × 10^4 cells/well, and then pre-incubated on a 96-well plate for 24 hours. After removing the medium, samples prepared in serum-free D-MEM were added to each well and cultured for 48 hours. After the culture was completed, the amount of hyaluronic acid in the supernatant was quantified by ELISA. Measurements were performed in triplicate (N=3).
The amount of hyaluronic acid produced when the sample was measured at a concentration of 10 mM or less was compared with that of the control group, and the results (% values when the control group is set to 100%) are shown in Tables 18 to 20 based on the following criteria. • <100%: ± • 100-120%: + • 120%<: ++ [Table 18]
(In an ELISA, binding on a coated surface is turned into a signal by an enzyme label.)

Data set [3] in a line: Stability test -1: odor and coloration scored by 10 panelists. Format: physicochemical. The settings on record: Test Example 1, aqueous solution, total score of 10 panelists. As to the method:
(§1) For each of the samples of Synthesis Examples 1 to 6, 1% aqueous solutions were adjusted to pH 3, 5, 7, 8, and 9 with a dilute potassium hydroxide aqueous solution, and then placed in 50 mL screw tubes and • 2: Color changes compared to immediately after preparation. • 1: Strongly colored compared to immediately after preparation. Based on the results of the above evaluation, the following classification was made: • ○: Total score of 10 panelists is 25 or more • △: Total score of 10 panelists is 16-24 • ×: The total score of 10 panelists is 15 or less [Table 10]

Data set [4] is described as follows: Stability test -2: residual rate in cream of pH 7 or 9 stored at 50°C. The note with it: cream with 4.0 W/W% derivative. Format: physicochemical. Here is the method:
(§2) For each of the samples of Synthesis Examples 9 to 32, (a) and (b) shown in Table 12 were each heated and mixed. After cooling, (c) shown in Table 12 was added to prepare a cream with a pH of 7 or 9. The sample was stored at 50°C for 4 weeks, and the residual rate was determined in the same manner as in Test Example 1 and evaluated according to the criteria described below. The odor and coloration were also evaluated according to the same method and criteria as in Test Example 1. The results regarding the residual rate are shown in Tables 13 and 14, and the results regarding the odor and coloration are shown in Tables 15 and 16.
• ⊚: 95% or more • ○: 85% or more, less than 95% • ×: Less than 85% [Table 12]

Data set [5] is described as follows: Stability test -2: odor and coloration of cream stored at 50°C. Format: physicochemical. The settings on record: Test Example 2, cream stored at 50°C, total score of 10 panelists. Here is the method: as §1, §2

On to `O=C1O[C@H]([C@@H](O)CO)C(O)=C1O` [Ascorbic acid], for which the “Residual Rate After 2 weeks” value is listed as “○” in data set [1] (pH3, stored at 50°C); “○” in data set [1] (pH5, stored at 50°C); “×” in data set [1] (pH7, stored at 50°C); “×” in data set [1] (pH8, stored at 50°C); “×” in data set [1] (pH9, stored at 50°C). In addition, the “Residual Rate After 4 weeks” value is on record as “Δ” in data set [1] (pH3, stored at 50°C); “×” in data set [1] (pH5, stored at 50°C); “×” in data set [1] (pH7, stored at 50°C); “×” in data set [1] (pH8, stored at 50°C); “×” in data set [1] (pH9, stored at 50°C). The residual rate result in data set [1] (Test Example 1, pH 7 to 9, stored at 50°C, after two weeks) is “less than 30%”. For the same compound, the “Hyaluronic acid production-promoting effect” value in data set [2] was “± (<100%)”. Further, the “Coloration After 2 weeks” value in data set [3] is recorded as “Δ”. Moreover, in data set [3], the “Odor After 2 weeks” value was “Δ”. Further, the “Coloration After 4 weeks” value in data set [3] is recorded as “× (The total score of 10 panelists is 15 or less)”. The “Odor After 4 weeks” value in data set [3] is on record as “× (The total score of 10 panelists is 15 or less)”.
As to `CCCCCCCCCCCC(=O)OCC(O)C1OC(=O)C2=C1OCCCO2` (stereo not drawn) [synthesis example 24, 6-O-lauroyl-2,3-O-(1,3-propanediyl) ascorbic acid], in data set [2], the “Hyaluronic acid production-promoting effect” value was “++ (120%<)”. For the same compound, in data set [4] (pH7, stored at 50°C), the “Residual Rate After 2 weeks” value is “⊚ (95% or more)” and the “Residual Rate After 4 weeks” value is recorded as “⊚ (95% or more)”. In data set [4] (pH9, stored at 50°C), the “Residual Rate After 2 weeks” value is recorded as “⊚ (95% or more)” and the “Residual Rate After 4 weeks” value is recorded as “⊚ (95% or more)”. Further, in data set [5], the “Coloration After 2 weeks” value is listed as “○ (Total score of 10 panelists is 25 or more)”, the “Odor After 2 weeks” value is reported as “○ (Total score of 10 panelists is 25 or more)”, the “Coloration After 4 weeks” value is given as “○ (Total score of 10 panelists is 25 or more)” and the “Odor After 4 weeks” value is recorded as “Δ”.
In the case of `CCCCCCCCCCCC(=O)OCC(OC(=O)CCCCCCCCCCC)C1OC(=O)C2=C1OCCCO2` (stereo not drawn) [synthesis example 25, 5,6-O-dilauroyl-2,3-O-(1,3-propanediyl) ascorbic acid], the “Hyaluronic acid production-promoting effect” value in data set [2] was “++ (120%<)”. Besides, in data set [4] (pH7, stored at 50°C), the “Residual Rate After 2 weeks” value is recorded as “⊚ (95% or more)” and the “Residual Rate After 4 weeks” value is reported as “⊚ (95% or more)”. Also, in data set [4] (pH9, stored at 50°C), the “Residual Rate After 2 weeks” value is “⊚ (95% or more)” and the “Residual Rate After 4 weeks” value is reported as “⊚ (95% or more)”. Besides, in data set [5], the “Coloration After 2 weeks” value is recorded as “○ (Total score of 10 panelists is 25 or more)”, the “Odor After 2 weeks” value is “○ (Total score of 10 panelists is 25 or more)”, the “Coloration After 4 weeks” value is on record as “Δ” and the “Odor After 4 weeks” value was “Δ”.
Consider `CCCCCCCCCCCCCCCC(=O)OCC(O)C1OC(=O)C2=C1OCCCO2` (stereo not drawn) [synthesis example 26, 6-O-palmitoyl-2,3-O-(1,3-propanediyl) ascorbic acid], for which the “Hyaluronic acid production-promoting effect” value in data set [2] is recorded as “++ (120%<)”. Also, in data set [4] (pH7, stored at 50°C), the “Residual Rate After 2 weeks” value was “⊚ (95% or more)” and the “Residual Rate After 4 weeks” value was “⊚ (95% or more)”. In data set [4] (pH9, stored at 50°C), the “Residual Rate After 2 weeks” value is “⊚ (95% or more)” and the “Residual Rate After 4 weeks” value is given as “○ (85% or more, less than 95%)”. In addition, in data set [5], the “Coloration After 2 weeks” value was “○ (Total score of 10 panelists is 25 or more)”, the “Odor After 2 weeks” value was “○ (Total score of 10 panelists is 25 or more)”, the “Coloration After 4 weeks” value is “Δ” and the “Odor After 4 weeks” value was “Δ”.
Turning to `CC(C)CCCCCCCCCCCCCCC(=O)OCC(O)C1OC(=O)C2=C1OCCO2` (stereo not drawn) [synthesis example 31, 6-O-isostearoyl-2,3-O-(1,2-ethanediyl) ascorbic acid], the “Hyaluronic acid production-promoting effect” value in data set [2] is “++ (120%<)”. In addition, in data set [4] (pH7, stored at 50°C), the “Residual Rate After 2 weeks” value is reported as “⊚ (95% or more)” and the “Residual Rate After 4 weeks” value is given as “⊚ (95% or more)”. Moreover, in data set [4] (pH9, stored at 50°C), the “Residual Rate After 2 weeks” value is listed as “⊚ (95% or more)” and the “Residual Rate After 4 weeks” value is listed as “⊚ (95% or more)”. For the same compound, in data set [5], the “Coloration After 2 weeks” value is reported as “○ (Total score of 10 panelists is 25 or more)”, the “Odor After 2 weeks” value is “○ (Total score of 10 panelists is 25 or more)”, the “Coloration After 4 weeks” value is on record as “○ (Total score of 10 panelists is 25 or more)” and the “Odor After 4 weeks” value is “Δ”.
As to `CCCCCCCCCCCCCCCC(=O)OCC(OC(=O)CCCCCCCCCCCCCCC)C1OC(=O)C2=C1OCCCCO2` (stereo not drawn) [synthetic example 16, 5,6-O-dipalmitoyl-2,3-O-(1,4-butanediyl) ascorbic acid], in data set [2], the “Hyaluronic acid production-promoting effect” value is reported as “++ (120%<)”. For the same compound, in data set [4] (pH7, stored at 50°C), the “Residual Rate After 2 weeks” value is “⊚ (95% or more)” and the “Residual Rate After 4 weeks” value is reported as “⊚ (95% or more)”. Further, in data set [4] (pH9, stored at 50°C), the “Residual Rate After 2 weeks” value is on record as “⊚ (95% or more)” and the “Residual Rate After 4 weeks” value is on record as “⊚ (95% or more)”. Further, in data set [5], the “Coloration After 2 weeks” value is reported as “○ (Total score of 10 panelists is 25 or more)”, the “Odor After 2 weeks” value was “○ (Total score of 10 panelists is 25 or more)”, the “Coloration After 4 weeks” value was “○ (Total score of 10 panelists is 25 or more)” and the “Odor After 4 weeks” value is reported as “Δ”.
As to `CC(C)CCCCCCCCCCCCCCC(=O)OCC(O)C1OC(=O)C2=C1OCCCO2` (stereo not drawn) [synthetic example 28, 6-O-isostearoyl-2,3-O-(1,3-propanediyl) ascorbic acid], the “Hyaluronic acid production-promoting effect” value in data set [2] is on record as “++ (120%<)”. For the same compound, in data set [4] (pH7, stored at 50°C), the “Residual Rate After 2 weeks” value is “⊚ (95% or more)” and the “Residual Rate After 4 weeks” value was “⊚ (95% or more)”. In data set [4] (pH9, stored at 50°C), the “Residual Rate After 2 weeks” value is given as “⊚ (95% or more)” and the “Residual Rate After 4 weeks” value was “⊚ (95% or more)”. Further, in data set [5], the “Coloration After 2 weeks” value was “○ (Total score of 10 panelists is 25 or more)”, the “Odor After 2 weeks” value is “○ (Total score of 10 panelists is 25 or more)”, the “Coloration After 4 weeks” value is on record as “○ (Total score of 10 panelists is 25 or more)” and the “Odor After 4 weeks” value is reported as “Δ”.
On to “Bisglyceryl ascorbic acid [reference compound]”, for which, in data set [1] (pH3, stored at 50°C), the “Residual Rate After 2 weeks” value is reported as “⊚” and the “Residual Rate After 4 weeks” value is reported as “⊚”. For the same compound, in data set [1] (pH5, stored at 50°C), the “Residual Rate After 2 weeks” value was “⊚” and the “Residual Rate After 4 weeks” value was “⊚”. In data set [1] (pH7, stored at 50°C), the “Residual Rate After 2 weeks” value was “×” and the “Residual Rate After 4 weeks” value is recorded as “×”. In data set [1] (pH8, stored at 50°C), the “Residual Rate After 2 weeks” value is given as “×” and the “Residual Rate After 4 weeks” value is given as “×”. In data set [1] (pH9, stored at 50°C), the “Residual Rate After 2 weeks” value is listed as “×” and the “Residual Rate After 4 weeks” value was “×”. Further, in data set [3], the “Coloration After 2 weeks” value was “Δ”, the “Odor After 2 weeks” value is on record as “Δ”, the “Coloration After 4 weeks” value is reported as “Δ” and the “Odor After 4 weeks” value is recorded as “Δ”.
